{
  "source": "patent US20070093520A1",
  "about": "“Method of treatment of diarrhea-predominant irritable bowel syndrome in a subject” (priority 2005, published 2007)",
  "tested_on": "diarrhea-predominant IBS subjects",
  "assay": "3007 Study: open-label 52-week safety study, adverse events and withdrawals",
  "settings": "Placebo/Cilansetron 2 mg",
  "data": [
    {"smiles": "Cc1nccn1C[C@H]1CCc2c(c3cccc4c3n2CCC4)C1=O", "note": "[cilansetron, (R)-(−)-4,5,6,8,9,10-hexahydro-10-[(2-methyl-1H-imidazol-1-yl)methyl]-11H-pyrido-[3,2,1-jk]-carbazol-11-one]", "values": [
      {"measurement": "TEAE: Eructation", "result": "0 n (%)"},
      {"measurement": "TEAE: Eye Injuries NEC", "result": "0 n (%)"},
      {"measurement": "TEAE: Faecal Abnormality NOS", "result": "1 (<1%) n (%)"},
      {"measurement": "TEAE: Faecal Impaction", "result": "1 (<1%) n (%)"},
      {"measurement": "TEAE: Faecal Incontinence", "result": "3 (1%) n (%)"},
      {"measurement": "TEAE: Faecal Occult Blood Positive", "result": "8 (3%) n (%)"},
      {"measurement": "TEAE: Faeces Abnormal", "result": "7 (3%) n (%)"},
      {"measurement": "TEAE: Faeces Hard", "result": "5 (2%) n (%)"},
      {"measurement": "TEAE: Fibromyalgia", "result": "0 n (%)"},
      {"measurement": "TEAE: Flatulence", "result": "10 (4%) n (%)"},
      {"measurement": "TEAE: Flatulence, Bloating and Distension", "result": "13 (5%) n (%)"},
      {"measurement": "TEAE: Food Poisoning NOS", "result": "2 (<1%) n (%)"},
      {"measurement": "TEAE: Foot Fracture", "result": "1 (<1%) n (%)"},
      {"measurement": "TEAE: Fractures and Dislocations NEC", "result": "0 n (%)"},
      {"measurement": "TEAE: Frequent Bowel Movements", "result": "0 n (%)"},
      {"measurement": "TEAE: Fungal Infection NOS", "result": "1 (<1%) n (%)"},
      {"measurement": "TEAE: Fungal Infections NEC", "result": "4 (1%) n (%)"},
      {"measurement": "TEAE: Gamma-Glutamyltransferase Increased", "result": "3 (1%) n (%)"},
      {"measurement": "TEAE: Gastric Irritation", "result": "0 n (%)"},
      {"measurement": "TEAE: Gastritis (Excl Infective)", "result": "0 n (%)"},
      {"measurement": "TEAE: Gastritis NOS", "result": "0 n (%)"},
      {"measurement": "TEAE: Gastroenteritis NOS", "result": "5 (2%) n (%)"},
      {"measurement": "TEAE: Gastroenteritis Viral NOS", "result": "6 (2%) n (%)"},
      {"measurement": "TEAE: Gastrointestinal Atonic and Hypomotility Disorders NEC", "result": "63 (23%) n (%)"},
      {"measurement": "TEAE: Gastrointestinal Disorders", "result": "134 (48%) n (%)"},
      {"measurement": "TEAE: Gastrointestinal Disorders NEC", "result": "2 (<1%) n (%)"},
      {"measurement": "TEAE: Gastrointestinal Dyskinetic Disorders", "result": "2 (<1%) n (%)"},
      {"measurement": "TEAE: Gastrointestinal Histopathology Procedures", "result": "12 (4%) n (%)"},
      {"measurement": "TEAE: Gastrointestinal Infections - Pathogen Class Unspecified", "result": "5 (2%) n (%)"},
      {"measurement": "TEAE: Gastrointestinal Inflammatory Disorders NEC", "result": "1 (<1%) n (%)"},
      {"measurement": "TEAE: Gastrointestinal Motility Disorder NOS", "result": "1 (<1%) n (%)"},
      {"measurement": "TEAE: Gastrointestinal Mucosal Dystrophies and Secretion Disorders", "result": "0 n (%)"},
      {"measurement": "TEAE: Gastrointestinal Signs and Symptoms NEC", "result": "2 (<1%) n (%)"},
      {"measurement": "TEAE: Gastrointestinal Spastic and Hypermotility Disorders", "result": "0 n (%)"},
      {"measurement": "TEAE: Gastrointestinal and Abdominal Pains (Excl Oral and Throat)", "result": "33 (12%) n (%)"},
      {"measurement": "TEAE: Gingival Abscess", "result": "0 n (%)"},
      {"measurement": "TEAE: Gingival Atrophy", "result": "0 n (%)"},
      {"measurement": "TEAE: Gingival Disorders NEC", "result": "2 (<1%) n (%)"},
      {"measurement": "TEAE: Gingival Pain", "result": "0 n (%)"},
      {"measurement": "TEAE: Gingival Pains", "result": "0 n (%)"},
      {"measurement": "TEAE: Gingivitis", "result": "2 (<1%) n (%)"},
      {"measurement": "TEAE: Gingivitis Infection NOS", "result": "0 n (%)"},
      {"measurement": "TEAE: Glucose Urine Present", "result": "0 n (%)"},
      {"measurement": "TEAE: Groin Pain", "result": "0 n (%)"},
      {"measurement": "TEAE: Haematocrit Decreased", "result": "0 n (%)"},
      {"measurement": "TEAE: Haemoglobin Decreased", "result": "0 n (%)"},
      {"measurement": "TEAE: Haemorrhoidal Haemorrhage", "result": "2 (<1%) n (%)"},
      {"measurement": "TEAE: Haemorrhoids", "result": "7 (3%) n (%)"},
      {"measurement": "TEAE: Haemorrhoids Aggravated", "result": "1 (<1%) n (%)"},
      {"measurement": "TEAE: Haemorrhoids and Gastrointestinal Varices (Excl Oesophageal)", "result": "9 (3%) n (%)"},
      {"measurement": "TEAE: Halitosis", "result": "0 n (%)"},
      {"measurement": "TEAE: Headache NOS", "result": "12 (4%) n (%)"},
      {"measurement": "TEAE: Headache NOS Aggravated", "result": "2 (<1%) n (%)"},
      {"measurement": "TEAE: Headaches NEC", "result": "14 (5%) n (%)"},
      {"measurement": "TEAE: Heart Rate Increased", "result": "1 (<1%) n (%)"},
      {"measurement": "TEAE: Heart Rate and Pulse Investigations", "result": "1 (<1%) n (%)"},
      {"measurement": "TEAE: Heat Exhaustion", "result": "0 n (%)"},
      {"measurement": "TEAE: Heat Injuries (Excl Thermal Burns)", "result": "0 n (%)"},
      {"measurement": "TEAE: Helicobacter Pylori Antibody Positive", "result": "0 n (%)"},
      {"measurement": "TEAE: Herpes Simplex", "result": "1 (<1%) n (%)"},
      {"measurement": "TEAE: Herpes Simplex Aggravated", "result": "0 n (%)"},
      {"measurement": "TEAE: Herpes Viral Infections", "result": "2 (<1%) n (%)"},
      {"measurement": "TEAE: Herpes Zoster", "result": "1 (<1%) n (%)"},
      {"measurement": "TEAE: Hiatus Hernia", "result": "0 n (%)"},
      {"measurement": "TEAE: Hyperreflexia", "result": "0 n (%)"},
      {"measurement": "TEAE: Hypoaesthesia", "result": "1 (<1%) n (%)"},
      {"measurement": "TEAE: Infected Varicose Vein", "result": "0 n (%)"},
      {"measurement": "TEAE: Infections NEC", "result": "1 (<1%) n (%)"},
      {"measurement": "TEAE: Infections and Infestations", "result": "67 (24%) n (%)"},
      {"measurement": "TEAE: Influenza", "result": "7 (3%) n (%)"},
      {"measurement": "TEAE: Influenza Viral Infections", "result": "7 (3%) n (%)"},
      {"measurement": "TEAE: Inguinal Hernia NOS", "result": "1 (<1%) n (%)"},
      {"measurement": "TEAE: Inguinal Hernias", "result": "1 (<1%) n (%)"},
      {"measurement": "TEAE: Injury, Poisoning and Procedural Complications", "result": "21 (8%) n (%)"},
      {"measurement": "TEAE: Intervertebral Disc Degeneration NOS", "result": "0 n (%)"},
      {"measurement": "TEAE: Intervertebral Disc Disorder NOS", "result": "0 n (%)"},
      {"measurement": "TEAE: Intervertebral Disc Disorders NEC", "result": "0 n (%)"},
      {"measurement": "TEAE: Intervertebral Disc Herniation", "result": "0 n (%)"},
      {"measurement": "TEAE: Intestinal Haemorrhages", "result": "4 (1%) n (%)"},
      {"measurement": "TEAE: Intraocular Pressure Increased", "result": "1 (<1%) n (%)"},
      {"measurement": "TEAE: Investigations", "result": "49 (18%) n (%)"},
      {"measurement": "TEAE: Irritable Bowel Syndrome", "result": "0 n (%)"},
      {"measurement": "TEAE: Irritable Bowel Syndrome Aggravated", "result": "0 n (%)"},
      {"measurement": "TEAE: Joint Related Disorders NEC", "result": "1 (<1%) n (%)"}
    ]}
  ]
}
